Data on twelve molecules can be found in US7892312B2, “Nitrification inhibitor and soil improver and fertilizer containing the same” (priority 2005, dated 2011).

Each structure is given as a SMILES string.

The test system of the assay is Nitrosomonas europaea IF014298. Briefly: in-vitro nitrification bacteria biological luminescence test. In kind it is cell-based. On the procedure: Observation was conducted using in-vitro nitrification bacteria. Explanation is first made of preparation of suspension of the nitrification bacteria used for observation.
The nitrification bacteria (Nitrosomonas europaea IF014298. See Non-Patent Reference 4.) with a bacteria-origin luciferase gene (luxAB) introduced therein was aerobically cultivated in P culture media containing 25 mg/1000 cm^3 of kanamycin at 30° C. for 7-9 days, and after washing, suspended in fresh P culture media, thereby nitrification bacteria suspension was prepared. This nitrification bacteria suspension was kept in the dark place for 30 minutes or longer before experiment.
The composition of P culture media consists of 2.5 g of (NH4)2SO4, 0.7 g of KH2PO4, 13.5 g of Na2HPO4, 0.5 g of NaHCO3, 100 mg of MgSO4-7H2O, 5 mg of CaCl2-2H2O, 1 mg of Fe-EDTA, and 1000 cm^3 of water, and its pH was 8.0.
Nitrification function was evaluated by, after mixing in-vitro the aqueous solution of nitrification bacteria suspension consisting of 0.25 cm^3 of said nitrification bacteria suspension and 0.2 cm^3 of water and 0.01 cm^3 of the sample solution of each Example and Comparative Example, measuring biological luminescence accompanying nitrification reaction during cultivation at 15° C. for 30 minutes using a luminometer (Turner Designs, TD20/20). […] Therefore, the luminescence of the case where a sample solution of each Example and Comparative Example is added to the aqueous solution of nitrification bacteria suspension divided by the luminescence of the case of aqueous bacteria suspension without addition of a sample solution of each Example and Comparative Example was defined as nitrification-inhibitory ratio.
The concentration of sample solutions of each Example and Comparative Example in this case was 20 ppm.
Measurement was conducted as mentioned above with the concentration of sample solutions of each Example and Comparative Example in the aqueous nitrification bacteria suspension varying 0-20 ppm.

[1] abbreviates: sample concentration 20 ppm, 15° C., 30 minutes.

Regarding `CCCCC/C=C\C/C=C\C/C=C\C/C=C\CCCC(=O)O` [arachidonic acid, reference compound], the “inhibition of nitrification reaction (in words)” value (from here on “inhibition … (in words)”) (sample concentration 20 ppm) is recorded as “not inhibited”.

On to `N#CN=C(N)N` [dicyandiamide, reference compound], for which the “80% inhibition concentration (concentration at which nitrification-inhibitory ratio was 80%)” value stood at 185 ppm.

`CCCCC/C=C\C/C=C\CCCCCCCC(=O)OCC` [ethyl linoleate, reference compound]: the “inhibition … (in words)” value (sample concentration 20 ppm) is reported as “not inhibited”.

On to `CCCCC/C=C\C/C=C\CCCCCCCC(=O)O` [linoleic acid], for which the “80% inhibition concentration (concentration at which nitrification-inhibitory ratio was 80%)” value is recorded as “about 16 ppm”. For the same molecule, the nitrification-inhibitory ratio (sample concentration 8 ppm) stood at 40%. Besides, for the setting “sample concentration 12 ppm”, the nitrification-inhibitory ratio worked out at 65%. For the same molecule, the nitrification-inhibitory ratio (sample concentration 16 ppm) worked out at 90%. Besides, under setting [1], the nitrification-inhibitory ratio is 95%.

Regarding `CCCCC/C=C\C/C=C\CCCCCCCC(=O)OC` [methyl linoleate], the “80% inhibition concentration (concentration at which nitrification-inhibitory ratio was 80%)” value was roughly 8 ppm. Also, the nitrification-inhibitory ratio (sample concentration 8 ppm) came to 80%. For the same molecule, the nitrification-inhibitory ratio (sample concentration 12 ppm) was found to be 90%. Under “sample concentration 16 ppm”, the nitrification-inhibitory ratio came to 92%. For the same molecule, the nitrification-inhibitory ratio under setting [1] stood at 95%.

As to `CCCCCCCC/C=C\CCCCCCCC(=O)OC` [methyl oleate, reference compound], the “inhibition … (in words)” value (sample concentration 20 ppm) is listed as “not inhibited”.

Regarding `CC/C=C\C/C=C\C/C=C\CCCCCCCC(=O)OC` [methyl α-linolenate, reference compound], the “inhibition … (in words)” value (sample concentration 20 ppm) was “not inhibited”.

In the case of `Clc1cccc(C(Cl)(Cl)Cl)n1` [nitrapyrin, 2-chloro-6-Trichloromethylpyridine, reference compound], the “80% inhibition concentration (concentration at which nitrification-inhibitory ratio was 80%)” value worked out at 4 ppm.

Consider `CCCCCCCC/C=C\CCCCCCCC(=O)O` [oleic acid, reference compound], for which the “inhibition … (in words)” value (sample concentration 20 ppm) is listed as “not inhibited”.

On to `CCCCCCCCCCCCCCCCCC(=O)O` [stearic acid, reference compound], for which the “inhibition … (in words)” value (sample concentration 20 ppm) is “not inhibited”.

As for `CC/C=C\C/C=C\C/C=C\CCCCCCCC(=O)O` [α-linolenic acid], the “80% inhibition concentration (concentration at which nitrification-inhibitory ratio was 80%)” value was roughly 12 ppm. The nitrification-inhibitory ratio (sample concentration 8 ppm) amounted to 40%. Moreover, under “sample concentration 12 ppm”, the nitrification-inhibitory ratio was found to be 80%. Also, under “sample concentration 16 ppm”, the nitrification-inhibitory ratio stood at 90%. For the same molecule, the nitrification-inhibitory ratio under setting [1] was determined as 95%.

Take `CCCCC/C=C\C/C=C\C/C=C\CCCCC(=O)O` [γ-linolenic acid]: the “80% inhibition concentration (concentration at which nitrification-inhibitory ratio was 80%)” value is “about 16 ppm”. For the same molecule, the nitrification-inhibitory ratio (sample concentration 8 ppm) is 30%. For the same molecule, the nitrification-inhibitory ratio (sample concentration 12 ppm) was determined as 72%. For the same molecule, the nitrification-inhibitory ratio (sample concentration 16 ppm) stood at 90%. Besides, the nitrification-inhibitory ratio under setting [1] is given as 95%.
